According to ChEMBL document CHEMBL3351396, “Synthesis of the novel elemonic acid derivatives as Pin1 inhibitors” (Bioorg Med Chem Lett, 2014):

Molecular target: Peptidyl-prolyl cis-trans isomerase NIMA-interacting 1 (Homo sapiens, UniProt Q13526)
Experiment: Inhibition of Pin1 (unknown origin) using Suc-Ala-Glu-Pro-Phe-4-nitroanilide as substrate after 30 mins by protease-coupled assay

Chain of Peptidyl-prolyl cis-trans isomerase NIMA-interacting 1 (Q13526 whole entry): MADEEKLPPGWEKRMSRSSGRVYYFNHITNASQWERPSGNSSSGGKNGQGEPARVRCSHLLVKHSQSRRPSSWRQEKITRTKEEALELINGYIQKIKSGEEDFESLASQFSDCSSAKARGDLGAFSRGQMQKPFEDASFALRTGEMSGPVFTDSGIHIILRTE

Compound `CC1(C)C(=O)CC[C@]2(C)C3=C(CC[C@@H]12)[C@@]1(C)CC[C@@H]([C@H](CCC(=O)O)C(=O)OCc2ccccc2)[C@]1(C)CC3` has an IC50 of 3.68 µM.

Work on `CN(C)C(=O)CC[C@H](C(=O)OCc1ccccc1)[C@@H]1CC[C@]2(C)C3=C(CC[C@@]12C)[C@@]1(C)CCC(=O)C(C)(C)[C@@H]1CC3` yielded an IC50 of 0.83 µM.

With `CC1(C)C(=O)CC[C@]2(C)C3=C(CC[C@@H]12)[C@@]1(C)CC[C@@H]([C@H](CCC(=O)O)C(=O)OCc2ccccc2)[C@]1(C)CC3=O` the IC50 was 1.47 µM.

`CC1(C)C(=O)CC[C@]2(C)C3=C(CC[C@@H]12)[C@@]1(C)CC[C@@H]([C@H](CCC(N)=O)C(=O)OCc2ccccc2)[C@]1(C)CC3` gave an IC50 of over 40 µM.

With `CC(C)=CCC[C@H](C(=O)O)[C@@H]1CC[C@]2(C)C3=C(CC[C@@]12C)[C@@]1(C)CCC(=O)C(C)(C)[C@@H]1CC3` the IC50 was 13.2 µM.

In the case of `CC1(C)C(=O)CC[C@]2(C)C3=C(C(=O)C[C@@H]12)[C@@]1(C)CC[C@@H]([C@H](CCC(=O)O)C(=O)OCc2ccccc2)[C@]1(C)CC3`, the IC50 is reported as over 40 µM.

In the case of `CC1(C)C(=O)CC[C@]2(C)C3=C(CC[C@@H]12)[C@@]1(C)CC[C@@H]([C@H](CCC#N)C(=O)OCc2ccccc2)[C@]1(C)CC3`, the IC50 is reported as 14.1 µM.

Compound `CC(C)=CCC[C@H](C(=O)OCc1ccccc1)[C@@H]1CC[C@]2(C)C3=C(CC[C@@]12C)[C@@]1(C)C/C(=C\C(=O)O)C(=O)C(C)(C)[C@@H]1CC3` has an IC50 of 0.57 µM.

`CC1(C)C(=O)CC[C@]2(C)C3=C(CC[C@@H]12)[C@@]1(C)CC[C@@H]([C@H](CCC(=O)N2CCNCC2)C(=O)OCc2ccccc2)[C@]1(C)CC3` showed an IC50 of over 40 µM.

Compound `CN1CCN(C(=O)CC[C@H](C(=O)OCc2ccccc2)[C@@H]2CC[C@]3(C)C4=C(CC[C@@]23C)[C@@]2(C)CCC(=O)C(C)(C)[C@@H]2CC4)CC1` has an IC50 of 31.5 µM.

`CC1(C)C(=O)CC[C@]2(C)C3=C(CC[C@@H]12)[C@@]1(C)CC[C@@H]([C@H](CCc2nnn[nH]2)C(=O)OCc2ccccc2)[C@]1(C)CC3` gave an IC50 of 2.6 µM.

For `COC(=O)CC[C@H](C(=O)OCc1ccccc1)[C@@H]1CC[C@]2(C)C3=C(CC[C@@]12C)[C@@]1(C)CCC(=O)C(C)(C)[C@@H]1CC3`, the IC50 was over 40 µM.

Work on `CC(C)=CCC[C@H](C(=O)OCc1ccccc1)[C@@H]1CC[C@]2(C)C3=C(CC[C@@]12C)[C@@]1(C)C/C(=C\C(=O)N2CCN(C)CC2)C(=O)C(C)(C)[C@@H]1CC3` yielded an IC50 of 32.3 µM.

`CC(C)=CCC[C@H](C(=O)OCc1ccccc1)[C@@H]1CC[C@]2(C)C3=C(CC[C@@]12C)[C@@]1(C)C/C(=C\C(=O)N2CCNCC2)C(=O)C(C)(C)[C@@H]1CC3` gave an IC50 of over 40 µM.
